Test results reported in US5556744A, “Methods and compositions for diagnosing and treating certain HIV infected patients” (The Trustees of the University of Pennsylvania, priority 1994, dated 1996).

How the values were obtained:
[1] = tested on: maternal sera (antibodies); experiment: ELISA peptide-binding of maternal sera (Example 6); set-up: species or system human; settings: for Number of Non-Transmitters which bound to peptide / Percent of Non-Transmitters which bound to peptide: N = 12; for Number of Transmitters which bound to peptide / Percent of Transmitters which bound to peptide: N = 4
Text: A total of 86 maternal sera samples obtained from patients of the Hospital of the University of Pennsylvania during the third trimester of pregnancy were used in this study 58 (67%) were non-transmitters and 28 (33%) were transmitters. This is approximately consistent with the national average (i.e. a rate of transmission between 25-30%). Transmission status was based upon serological or molecular diagnosis of children (at an age of greater than 15 months) born to these mothers. Because of the constraints on the volume of serum available for many of these samples, not all sera were analyzed with all the peptides. However, each sera sample was run with at least 40 peptides.
These peptides are of an average length of 16 amino acids and covered the entire external as well as the transmembrane glycoprotein of HIV-1. Peptide binding was analyzed by ELISA essentially as described in Example 3.
The results of one study, using some of the peptides identified above among others, is provided in Table 12, which illustrates the number and percent of non-transmitters which bound to the tested peptide. The percentage designation refers to the percentage of sera samples which bound to a particular peptide. A value of greater than 0% means that at least one of the samples bound to the particular peptides.

[2] = tested on: maternal HIV+ sera (antibodies); experiment: RIA / ELISA binding of maternal HIV+ sera to gp120 and gp41 peptides (Example 3); set-up: species or system human
Outline: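 Maternal sera, diluted 1:50 and 1:500, were bound overnight at 4°C to peptides immobilized at 10 μg/ml (pH 9.6 carbonate) and blocked with 1% BSA. Read-out was ¹²⁵I-labelled anti-human IgG counts or HRP-TMB OD450. Signal with peptide minus without was expressed relative to seronegative serum.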

[3] = Serum No. 1, Non-Transmission Group
[4] = Serum No. 2, Non-Transmission Group
[5] = Serum No. 3, Non-Transmission Group
[6] = Serum No. 4, Transmission Group
[7] = Serum No. 5, Transmission Group
[8] = Serum No. 6, Non-Transmission Group
[9] = Serum No. 7, Non-Transmission Group
[10] = Serum No. 8, Non-Transmission Group
[11] = Serum No. 9, Non-Transmission Group
[12] = Serum No. 10, Transmission Group
[13] = Serum No. 11, Non-Transmission Group
[14] = Serum No. 12, Non-Transmission Group
[15] = Serum No. 13, Transmission Group
[16] = Serum No. 14, Transmission Group
[17] = Serum No. 15, Transmission Group
[18] = Serum No. 16, Non-Transmission Group
[19] = Serum No. 17, Non-Transmission Group
[20] = Serum No. 18, Non-Transmission Group
[21] = Serum No. 19, Transmission Group
[22] = Serum No. 20, Non-Transmission Group

Row | Sequence | Number of Non-Transmitters which bound to peptide [1] | Percent of Non-Transmitters which bound to peptide [1] | Number of Transmitters which bound to peptide [1] | Percent of Transmitters which bound to peptide [1] | Binding of maternal HIV+ serum to peptide (sera/NHS ratio) [2, 3] | Binding of maternal HIV+ serum to peptide (sera/NHS ratio) [2, 4] | Binding of maternal HIV+ serum to peptide (sera/NHS ratio) [2, 5] | Binding of maternal HIV+ serum to peptide (sera/NHS ratio) [2, 6] | Binding of maternal HIV+ serum to peptide (sera/NHS ratio) [2, 7] | Binding of maternal HIV+ serum to peptide (sera/NHS ratio) [2, 8] | Binding of maternal HIV+ serum to peptide (sera/NHS ratio) [2, 9] | Binding of maternal HIV+ serum to peptide (sera/NHS ratio) [2, 10] | Binding of maternal HIV+ serum to peptide (sera/NHS ratio) [2, 11] | Binding of maternal HIV+ serum to peptide (sera/NHS ratio) [2, 12] | Binding of maternal HIV+ serum to peptide (sera/NHS ratio) [2, 13] | Binding of maternal HIV+ serum to peptide (sera/NHS ratio) [2, 14] | Binding of maternal HIV+ serum to peptide (sera/NHS ratio) [2, 15] | Binding of maternal HIV+ serum to peptide (sera/NHS ratio) [2, 16] | Binding of maternal HIV+ serum to peptide (sera/NHS ratio) [2, 17] | Binding of maternal HIV+ serum to peptide (sera/NHS ratio) [2, 18] | also measured
1 | FSYHRLRDLLLIVTR [Peptide 132] | 1 | 83% | 0 | 0% | + (which value is between 2 to 3) | - (specific OD450 or cpm of sera sample binding to peptide divided by the specific OD450 or cpm of NHS sample binding to peptide, which value is less than 2) | - (specific OD450 or cpm of sera sample binding to peptide divided by the specific OD450 or cpm of NHS sample binding to peptide, which value is less than 2) | - (specific OD450 or cpm of sera sample binding to peptide divided by the specific OD450 or cpm of NHS sample binding to peptide, which value is less than 2) | - (specific OD450 or cpm of sera sample binding to peptide divided by the specific OD450 or cpm of NHS sample binding to peptide, which value is less than 2) | - (specific OD450 or cpm of sera sample binding to peptide divided by the specific OD450 or cpm of NHS sample binding to peptide, which value is less than 2) | - (specific OD450 or cpm of sera sample binding to peptide divided by the specific OD450 or cpm of NHS sample binding to peptide, which value is less than 2) | - (specific OD450 or cpm of sera sample binding to peptide divided by the specific OD450 or cpm of NHS sample binding to peptide, which value is less than 2) | + (which value is between 2 to 3) | - (specific OD450 or cpm of sera sample binding to peptide divided by the specific OD450 or cpm of NHS sample binding to peptide, which value is less than 2) | - (specific OD450 or cpm of sera sample binding to peptide divided by the specific OD450 or cpm of NHS sample binding to peptide, which value is less than 2) | - (specific OD450 or cpm of sera sample binding to peptide divided by the specific OD450 or cpm of NHS sample binding to peptide, which value is less than 2) | - (specific OD450 or cpm of sera sample binding to peptide divided by the specific OD450 or cpm of NHS sample binding to peptide, which value is less than 2) | - (specific OD450 or cpm of sera sample binding to peptide divided by the specific OD450 or cpm of NHS sample binding to peptide, which value is less than 2) | - (specific OD450 or cpm of sera sample binding to peptide divided by the specific OD450 or cpm of NHS sample binding to peptide, which value is less than 2) | - (specific OD450 or cpm of sera sample binding to peptide divided by the specific OD450 or cpm of NHS sample binding to peptide, which value is less than 2) | Binding of maternal HIV+ serum to peptide (sera/NHS ratio) [2, 19]: - (specific OD450 or cpm of sera sample binding to peptide divided by the specific OD450 or cpm of NHS sample binding to peptide, which value is less than 2); Binding of maternal HIV+ serum to peptide (sera/NHS ratio) [2, 20]: - (specific OD450 or cpm of sera sample binding to peptide divided by the specific OD450 or cpm of NHS sample binding to peptide, which value is less than 2); Binding of maternal HIV+ serum to peptide (sera/NHS ratio) [2, 21]: - (specific OD450 or cpm of sera sample binding to peptide divided by the specific OD450 or cpm of NHS sample binding to peptide, which value is less than 2); Binding of maternal HIV+ serum to peptide (sera/NHS ratio) [2, 22]: - (specific OD450 or cpm of sera sample binding to peptide divided by the specific OD450 or cpm of NHS sample binding to peptide, which value is less than 2)
2 | QNNLLRAIEAQQHLLQLTVWGI [Peptide 35] | 0 | 0% | 0 | 0% | - (specific OD450 or cpm of sera sample binding to peptide divided by the specific OD450 or cpm of NHS sample binding to peptide, which value is less than 2) | - (specific OD450 or cpm of sera sample binding to peptide divided by the specific OD450 or cpm of NHS sample binding to peptide, which value is less than 2) | + (which value is between 2 to 3) | - (specific OD450 or cpm of sera sample binding to peptide divided by the specific OD450 or cpm of NHS sample binding to peptide, which value is less than 2) | - (specific OD450 or cpm of sera sample binding to peptide divided by the specific OD450 or cpm of NHS sample binding to peptide, which value is less than 2) | - (specific OD450 or cpm of sera sample binding to peptide divided by the specific OD450 or cpm of NHS sample binding to peptide, which value is less than 2) | + (which value is between 2 to 3) | - (specific OD450 or cpm of sera sample binding to peptide divided by the specific OD450 or cpm of NHS sample binding to peptide, which value is less than 2) | - (specific OD450 or cpm of sera sample binding to peptide divided by the specific OD450 or cpm of NHS sample binding to peptide, which value is less than 2) | - (specific OD450 or cpm of sera sample binding to peptide divided by the specific OD450 or cpm of NHS sample binding to peptide, which value is less than 2) | - (specific OD450 or cpm of sera sample binding to peptide divided by the specific OD450 or cpm of NHS sample binding to peptide, which value is less than 2) | - (specific OD450 or cpm of sera sample binding to peptide divided by the specific OD450 or cpm of NHS sample binding to peptide, which value is less than 2) | - (specific OD450 or cpm of sera sample binding to peptide divided by the specific OD450 or cpm of NHS sample binding to peptide, which value is less than 2) | - (specific OD450 or cpm of sera sample binding to peptide divided by the specific OD450 or cpm of NHS sample binding to peptide, which value is less than 2) | - (specific OD450 or cpm of sera sample binding to peptide divided by the specific OD450 or cpm of NHS sample binding to peptide, which value is less than 2) | - (specific OD450 or cpm of sera sample binding to peptide divided by the specific OD450 or cpm of NHS sample binding to peptide, which value is less than 2) | Binding of maternal HIV+ serum to peptide (sera/NHS ratio) [2, 19]: - (specific OD450 or cpm of sera sample binding to peptide divided by the specific OD450 or cpm of NHS sample binding to peptide, which value is less than 2); Binding of maternal HIV+ serum to peptide (sera/NHS ratio) [2, 20]: - (specific OD450 or cpm of sera sample binding to peptide divided by the specific OD450 or cpm of NHS sample binding to peptide, which value is less than 2); Binding of maternal HIV+ serum to peptide (sera/NHS ratio) [2, 21]: - (specific OD450 or cpm of sera sample binding to peptide divided by the specific OD450 or cpm of NHS sample binding to peptide, which value is less than 2); Binding of maternal HIV+ serum to peptide (sera/NHS ratio) [2, 22]: - (specific OD450 or cpm of sera sample binding to peptide divided by the specific OD450 or cpm of NHS sample binding to peptide, which value is less than 2)
